In data set [1] the test system is non-transgenic control corn. It counts as in vivo. The following applies: high dose on the pesticide registration tag, four to six leaves, surveyed 1, 2, 4 weeks after application. From the text: (§1) transgenic corn to non-target herbicide 3 types of herbicides were set in this test, i.e., mesotrione· propisochlor atrazine SC (3.5% mesotrione, 15% propisochlor, and 15% atrazine) commonly used in corn field, glufosinate-ammonium (20% active ingredient) sensitive to corn, and haloxyfop-R-methyl (10.8% active ingredient), respectively. 4 treatments were set: (1) free of spraying herbicide; (2) spraying mesotrione· propisochlor atrazine SC; (3) spraying glufosinate-ammonium; and (4) spraying haloxyfop-R-methyl. The spraying dose is a high dose on the pesticide registration tag. Stems and leaves were sprayed when corn grew to four to six leaves. Seedling rate and symptom of pesticide damage were surveyed 1, 2, and 4 weeks later after application, respectively.

For data set [2], the system named is bivalent GAT and GR79 transgenic herbicide-resistant corn. It is filed as in vivo. The settings on record: high dose on the pesticide registration tag, four to six leaves, surveyed 1, 2, 4 weeks after application.
Excerpt: as §1

Data set [3] relates to transgenic cotton. The following applies: T1 generation, solution diluted to 1/200 (0.205 g/100 ml), 450 L/hectare; cited from earlier work.
The subject of data set [4] is transgenic corn GG2. The experiment in a line: Field glyphosate tolerance of the transgenic corn event GG2. The settings on record: for plant height 1 week BC4 / plant height 1 week BC5: 1 week after application; for plant height 2 weeks BC4 / plant height 2 weeks BC5: 2 weeks after application; for plant height 4 weeks BC4 / plant height 4 weeks BC5: 4 weeks after application. It counts as in vivo, Zea mays. The procedure: Field herbicide tolerance of transgenic corn was tested in accordance with the Test for Environmental Safety of Transgenic Plant and its Products Part 1 of Herbicide-Resistant Corn: herbicide Tolerance (No. 953 bulletin-11.1-2007 of the Ministry of Agriculture and Rural Affairs).
The test material was the transgenic corn GG2, and the corresponding non-transgenic corn. The herbicide was glyphosate. […] An isolation belt (a width of 1.0 m) was set among the blocks. Treatments include: transgenic corn not sprayed with a herbicide, transgenic corn sprayed with a target herbicide (glyphosate), non-transgenic corn not sprayed with a herbicide, and non-transgenic corn sprayed with a target herbicide (glyphosate). The application amount of the herbicide was 1-fold, 2 times, and 4 times the medium dose (active ingredient: 900 g/hectare) on the pesticide registration tag, respectively. The herbicide was applied at the four to five-leaf stage of corn. The rate of survival, plant height, and symptom of pesticide damage were surveyed and recorded 1, 2, and 4 weeks later after application, respectively. The symptom of pesticide damage was graded according to GB/T 19780.42. Glyphosate in the transgenic corn GG2, and in its corresponding transgenic control, and non-transgenic control was identified.

For data set [5], the system named is bivalent GAT and GR79 transgenic corn. The experiment in a line: Screening of high glyphosate-resistant events of bivalent GAT and GR79 transgenic corn. It is filed as in vivo, Zea mays. The following applies: for transformation events free of symptom of pesticide damage: 4 weeks after application. The procedure:
2 times the medium dose of glyphosate (active ingredient: 1800 g/hectare) was continuously applied, and survey was conducted 4 weeks later after application, 63 transformation events were free of symptom of pesticide damage. The T2 generation of materials of the screened 63 transformation events were sown and sprayed with glyphosate at the four to five-leaf stage in a spraying amount of 1-fold, 2 times, and 4 times the medium dose (active ingredient: 900 g/hectare) on the pesticide registration tag. The rate of survival and symptom of pesticide damage of each transformation event were surveyed and recorded 4 weeks later after application. 47 transformation events were free of symptom of pesticide damage after sprayed with 4 times the medium dose of glyphosate and thus, were high glyphosate-resistant materials, accounting for 61.84% of the 76 positive transgenic materials. The screening concentration continued to be increased; when it was up to 8 times (active ingredient: 7200 g/hectare) the medium dose, 6 transformation events were not affected.

Data set [6] deals with transgenic maize. The following applies: AM79 single-gene transgenic maize; cited from earlier work.
In data set [7] the test system is monovalent GAT transgenic corn. Description: Screening of high glyphosate-resistant events of monovalent GAT transgenic corn. It counts as in vivo, Zea mays. From the text: To determine the effect of the combined use of double genes on high glyphosate tolerance, the transgenic corn transformed with the single gene GAT was subjected to glyphosate tolerance test according to the same screening process, 8 transformation events which could be resistant to 4 times glyphosate were obtained finally, accounting for 21.05% of the 38 positive transgenic materials. By comparison of the two, the bivalent GAT and GR79 transgenic glyphosate-resistant corn was easier to obtain high glyphosate-resistant materials.

The mark [8] stands for this setting: GG2 BC4, 1-fold the medium dose.
[9] abbreviates: GG2 BC4, 2 times the medium dose.
Where [10] appears, read: GG2 BC4, 4 times the medium dose.
The mark [11] stands for this setting: GG2 BC5, 1-fold the medium dose.
Setting [12] is: GG2 BC5, 2 times the medium dose.
Where [13] appears, read: GG2 BC5, 4 times the medium dose.
The mark [14] stands for this setting: 8 times the medium dose (active ingredient: 7200 g/hectare).

The structures appear in SMILES notation. “Also recorded” adds a separate entry of the source. Like-named read-outs stand apart in the source and are kept apart here.

This is an account of results in patent publication US20240209388A1, “EXPRESSION VECTOR OF GLYPHOSATE-RESISTANT GENES GR79 AND GAT, HIGH GLYPHOSATE-RESISTANT CORN, AND DETECTION METHOD THEREFOR” (BIOTECHNOLOGY RESEARCH INSTITUTE, CHINESE ACADEMY OF …, priority 2021, published 2024).

For the compound `CP(=O)(O)CCC(N)C(=O)O` (centres unmarked) [glufosinate-ammonium], the figures for the “seedling rate and symptom of pesticide damage” value in data set [1], in data set [2] and in data set [2] (listed as Glufosinate-ammonium) were “died”, “died” and “sensitive”, respectively.

As for `CC(C)N.O=C(O)CNCP(=O)(O)O` [glyphosate isopropylamine], in data set [3], the survival rate entry was “more than 84%”.

Regarding `O=C(O)CNCP(=O)(O)O` [glyphosate], the “plant height versus transgenic corn not sprayed” value in data set [4] (GG2, 1-fold, 2 and 4 times the medium dose) is on record as “no significant difference”. In addition, the symptom of damage result in data set [4] (GG2, 1-fold, 2 and 4 times the medium dose, each stage, two consecutive generations) is “free of symptom of damage”. The “plant height 1 week BC4” value in data set [4] (GG2 BC4, 1-fold the medium dose (900 g active ingredient/hectare)) is on record as 58.52 cm; in data set [4] (setting [9]), 51.24 cm; in data set [4] (setting [10]) it was 59.81 cm. Besides, the “plant height 2 weeks BC4” value is listed as 85.59 cm in data set [4] (setting [8]), 79.38 cm in data set [4] (setting [9]) and 88.41 cm in data set [4] (setting [10]). Also, the figures for the “plant height 4 weeks BC4” value in data set [4] (setting [8]), in data set [4] (setting [9]) and in data set [4] (setting [10]) were 158.39 cm, 147.75 cm and 158.53 cm, respectively. Also, the figures for the “plant height 1 week BC5” value in data set [4] (setting [11]), in data set [4] (setting [12]) and in data set [4] (setting [13]) were 33.87 cm, 33.11 cm and 34.65 cm, respectively. In addition, the “plant height 2 weeks BC5” value came out at 51.71 cm in data set [4] (setting [11]), 54.29 cm in data set [4] (setting [12]) and 53.78 cm in data set [4] (setting [13]). Also, the “plant height 4 weeks BC5” value is reported as 136.37 cm in data set [4] (setting [11]), 139.65 cm in data set [4] (setting [12]) and 137.39 cm in data set [4] (setting [13]). Also, the “glyphosate dose GG2 is resistant to” value in data set [4] (medium dose 900 g active ingredient/hectare) was determined as 4 times the medium dose. Besides, in data set [5] (4 times the medium dose), the “high glyphosate-resistant materials as share of the 76 positive transgenic materials” value is given as 61.84%. Moreover, the “transformation events not affected” value in data set [5] (setting [14]) was determined as 6. Besides, the “harm by glyphosate during multi-generation screening” value in data set [5] (GG2 transformation event) was “not endangered by glyphosate”. In addition, the “transformation events free of symptom of pesticide damage” value in data set [5] (T1, 2 times the medium dose (active ingredient: 1800 g/hectare)) came to 63; in data set [5] (T2 of 63 events, 4 times the medium dose) it was 47. In addition, the survival transformation events in data set [5] (T1 generation of 76 double-positive events, four-leaf stage, medium dose (active ingredient: 900 g/hectare)) is listed as 72. In data set [5] (T1 generation of 76 double-positive events, medium dose (active ingredient: 900 g/hectare)), the “rate of zero symptom of pesticide damage” value was 94.7%. Besides, in data set [6], the “tolerated dose (active ingredient)” value was 3600 g/hectare. In data set [7] (4 times glyphosate), the “resistant events as share of the 38 positive transgenic materials” value was found to be 21.05%. In data set [7] (setting [14]), the plant survival entry was “no survival plant”. Besides, in data set [7] (of 38 positive single-gene GAT materials, 4 times the medium dose), the “transformation events resistant to 4 times glyphosate” value came out at 8. The “leaf symptoms of pesticide damage” value in data set [7] (partial high-resistant GAT events, a few days after 4 times the medium dose) is listed as “mild symptoms of herbicide damage; also recorded: mild symptoms of pesticide damage”.

`COC(=O)[C@@H](C)Oc1ccc(Oc2ncc(C(F)(F)F)cc2Cl)cc1` [haloxyfop-R-methyl]: in data set [1], the “seedling rate and symptom of pesticide damage” value is “died”.
